From US9987276B2 (Celgene CAR LLC, priority 2008, dated 2018)
Entries after “also recorded” stand apart in the source; their conditions may differ.

Assays:
[1] = target: T1, BTK (Homo sapiens (Human), UniProt Q06187); test: BTK Ramos cellular assay (PLCγ2 phosphorylation); type: cell-based; conditions: Ramos cells, 1 hour compound, anti-IgM stimulation, p-PLCγ2; read-out: BTK Inhibition (IC50), BTK Ramos cellular inhibition
[2] = target: T1, BTK; test: Washout experiment with Ramos cells; type: cell-based; conditions: 100 nM compound for 1 hour, then washout
Procedure: Ramos cells were serum starved for one hour in RPMI media+1% glutamine at 37° C. After starvation, Ramos cells were treated with 100 nM compound diluted in serum free RPMI media for 1 hour. After compound treatment, the media was removed and cells were washed with compound-free media. Subsequently, Ramos cells were washed every 2 hours and resuspended in fresh compound-free media. Cells were collected at specified timepoints, treated with 1 ug anti-human IgM (Southern Biotech cat #2022-01) for 10 minutes on ice to induce BCR signaling and then washed in PBS. Ramos cells were then lysed in Cell Extraction Buffer (Invitrogen FNN0011) supplemented with Roche complete protease inhibitor tablets (Roche 11697498001) and phosphatase inhibitors (Roche 04 906 837 001) and 18 ug total protein lysate was loaded in each lane. Inhibition of BTK kinase activity was assayed by measuring its substrate (PLCγ2) phosphorylation by western blot with phospho-specific antibodies from Cell Signaling Technologies cat #3871. The results of this experiment with compounds I-2, I-4 and I-7 are depicted in FIGS. 1, 2 and 3.

[3] = target: T1, BTK; test: Mass spectrometry for BTK (intact protein); type: binding; conditions: 1 hr, 10× fold excess of compound
Procedure: Intact BTK was incubated for 1 hr at a 10× fold excess of I-7 to protein. Aliquots (2 μl) of the samples were diluted with 10 μl of 0.1% TFA prior to micro C4 ZipTipping directly onto the MALDI target using Sinapinic acid as the desorption matrix (10 mg/ml in 0.1% TFA:Acetonitrile 20:80).

[4] = Collagen antibody induced arthritis model; type: in vivo; conditions: Dose 30 mg/kg
Procedure: On day 0 baseline footpad measurements were made and animals were distributed to the experimental groups in such a way as to generate groups with no significant differences between the groups. Each animal was then inoculated intravenously with 2 mg Arthritomab monoclonal antibody cocktail. Treatment with test agents began at this time. On day 6, each animal was injected intraperitoneally with 50 μg LPS in 200 μl of sterile PBS. Footpad measurements and clinical scoring were conducted on days 6, 7, 8, 9, 10, 11, 12, 14, 18, and 21.

[5] = target: JAK3 kinase (Homo sapiens (Human), UniProt P52333); test: Mass spectrometry for Janus-3 kinase (JAK3); type: binding; conditions: 3 hrs at 10× excess, tryptic digest
Procedure: JAK3 kinase (33 pmols; Invitrogen) was incubated with (I-7) (327 pmols) for 3 hrs at 10× excess prior to tryptic digestion. Iodoacetamide was used as the alkylating agent after compound incubation. For tryptic digests a 5 ul aliquot (5.5 pmols) was diluted with 15 ul of 0.1% TFA prior to micro C18 Zip Tipping directly onto the MALDI target using alpha cyano-4-hydroxy cinnamic acid as the matrix (5 mg/ml in 0.1% TFA:Acetonitrile 50:50).
As depicted in FIG. 11, the expected peptide ([…]) to be modified was immediately evident as the largest peak at MH+ of 1725.88. This is the mass to be expected when compound I-7, with an adduct mass of 345.16, is added to the peptide mass of 1380.70. […] There was also evidence for a number of other modified peptides, however, their signals were low.
To further verify the presence of the modified peptides with compound I-7, the peptides at MH+ of 1725.88 and 1118.55 were subjected to PSD (MS/MS) analysis. A correlational analysis with the homosapien database identified the correct peptides as being modified by I-7.
For tryptic digests the instrument was set in Reflectron mode with a pulsed extraction setting of 2200. Calibration was done using the Laser Biolabs Pep Mix standard ([…], 1296.69, 1672.92, 2093.09, 2465.20). […]

[6] = target: T1, BTK; test: BTK occupancy from in vitro samples by ELISA (Ramos cells); type: cell-based; conditions: ELISA with probe I-215
Procedure: In order to determine the amount of free BTK in cell or tissue lysates, an ELISA protocol was employed that utilizes a biotinylated probe compound that binds only to free, unoccupied BTK. The conjugated biotin is captured on a streptavidin-coated ELISA plate and detected with a mouse anti-BTK antibody (Becton Dickinson, Franklin Lakes, N.J., USA) and a secondary goat anti-mouse HRP antibody (Zymed, South San Francisco, Calif., USA).
All samples were prepared with equal concentrations of Biorad lysis buffer (Hercules, Calif., USA), 0.5% bovine serum albumin in PBS with 0.05% Tween-20 to give a final concentration of 1 μM I-215. Samples were incubated in a mixing plate for 1 hr at room temperature while shaking to allow probe compound I-215 to bind to free BTK. After incubation with I-215, samples were added to a washed, streptavidin-coated ELISA plate (Pierce, Rockford, Ill., USA) and incubated for 1 hr at room temperature while shaking. The plate was then washed with PBS containing 0.05% Tween-20 using an automatic plate washer. Anti-BTK antibody was prepared at 1:1000 dilution in 0.5% BSA in PBS (0.05% Tween-20) and added to the ELISA plate. The plate was incubated for 1 hr at room temperature while shaking. The plate was washed as described above and the secondary HRP antibody was prepared at 1:5000 dilution in 0.5% BSA in PBS (0.05% Tween-20). The plate was incubated and washed as described above. TMB was added to the plate, and OD650 was monitored until reaching 1 OD unit. The reaction was then stopped with addition of H2SO4. The plate was analyzed using Gen 5 software, and a 4 Parameter Logistic curve was employed to quantitate samples. Recombinant BTK (Invitrogen, Carlsbad, Calif., USA) was used for the standard curve.
A concentration designated as “A” is greater than 1 nM; a concentration designated as “B” is greater than 10 nM; and a concentration designated as “C” is greater than 50 nM.

T1 sequence (Q06187 whole entry): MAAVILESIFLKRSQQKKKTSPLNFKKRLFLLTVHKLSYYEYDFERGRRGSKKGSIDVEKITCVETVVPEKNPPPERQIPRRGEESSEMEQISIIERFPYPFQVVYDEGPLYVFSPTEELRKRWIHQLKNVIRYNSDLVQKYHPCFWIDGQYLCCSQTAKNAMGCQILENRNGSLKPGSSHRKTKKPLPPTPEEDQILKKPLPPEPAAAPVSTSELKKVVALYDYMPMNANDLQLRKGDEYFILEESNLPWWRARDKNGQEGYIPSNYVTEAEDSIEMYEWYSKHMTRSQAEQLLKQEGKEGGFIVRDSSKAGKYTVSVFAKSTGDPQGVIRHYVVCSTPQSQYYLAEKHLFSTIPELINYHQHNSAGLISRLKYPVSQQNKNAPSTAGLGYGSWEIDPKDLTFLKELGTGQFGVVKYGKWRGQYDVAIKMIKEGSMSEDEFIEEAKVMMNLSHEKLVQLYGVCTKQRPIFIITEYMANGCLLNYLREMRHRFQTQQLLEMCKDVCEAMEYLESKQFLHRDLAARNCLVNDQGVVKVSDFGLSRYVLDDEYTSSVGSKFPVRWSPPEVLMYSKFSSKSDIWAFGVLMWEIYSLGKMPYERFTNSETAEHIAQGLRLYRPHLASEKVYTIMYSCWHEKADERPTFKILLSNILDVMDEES
Sequence of JAK3 kinase (P52333 whole entry): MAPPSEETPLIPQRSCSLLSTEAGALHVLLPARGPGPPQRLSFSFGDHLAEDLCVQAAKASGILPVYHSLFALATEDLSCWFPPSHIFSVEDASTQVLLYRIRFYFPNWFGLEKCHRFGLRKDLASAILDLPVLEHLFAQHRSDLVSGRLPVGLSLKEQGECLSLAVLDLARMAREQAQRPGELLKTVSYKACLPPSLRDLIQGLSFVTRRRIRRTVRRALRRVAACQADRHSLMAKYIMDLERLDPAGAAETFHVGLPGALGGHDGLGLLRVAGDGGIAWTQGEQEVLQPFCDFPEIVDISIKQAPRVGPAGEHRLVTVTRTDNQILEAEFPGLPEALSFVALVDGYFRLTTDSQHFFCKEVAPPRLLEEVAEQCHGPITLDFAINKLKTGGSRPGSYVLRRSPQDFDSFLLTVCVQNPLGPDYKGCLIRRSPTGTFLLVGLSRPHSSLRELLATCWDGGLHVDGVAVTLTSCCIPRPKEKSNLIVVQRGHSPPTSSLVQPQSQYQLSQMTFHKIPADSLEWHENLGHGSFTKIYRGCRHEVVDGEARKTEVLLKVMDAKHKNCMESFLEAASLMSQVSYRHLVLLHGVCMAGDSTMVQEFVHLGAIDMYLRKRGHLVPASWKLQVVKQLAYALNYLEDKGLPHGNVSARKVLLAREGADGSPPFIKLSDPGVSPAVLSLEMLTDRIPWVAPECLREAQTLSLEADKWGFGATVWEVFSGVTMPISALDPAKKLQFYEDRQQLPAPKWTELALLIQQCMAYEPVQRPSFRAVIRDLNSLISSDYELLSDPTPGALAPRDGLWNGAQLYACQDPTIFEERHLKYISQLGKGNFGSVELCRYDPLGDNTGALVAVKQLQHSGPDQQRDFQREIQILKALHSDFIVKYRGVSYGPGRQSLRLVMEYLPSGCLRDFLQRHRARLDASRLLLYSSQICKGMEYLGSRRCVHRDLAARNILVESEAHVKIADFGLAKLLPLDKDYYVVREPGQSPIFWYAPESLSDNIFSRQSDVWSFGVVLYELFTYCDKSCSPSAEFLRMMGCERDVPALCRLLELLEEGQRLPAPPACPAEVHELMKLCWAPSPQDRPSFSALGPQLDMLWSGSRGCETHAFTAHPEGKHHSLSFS

Question: With `Cc1cccc(Nc2nc(Nc3cccc(NC(=O)/C=C/CN(C)C)c3)ncc2F)c1` [Compound I-4, (E)-4-(dimethylamino)-N-(3-(5-fluoro-4-(m-tolylamino)pyrimidin-2-ylamino)phenyl)but-2-enamide] as the molecule, how does the IC50 [1] read?
Answer: 10 to 100 nM

Question: What about the “BTK Inhibition Type” value [2] of the same molecule?
Answer: irreversible

Question: For `C=CC(=O)Nc1cccc(Nc2nc(Nc3ccccc3)ncc2C)c1` [Compound I-7, N-(3-(5-methyl-2-(phenylamino)pyrimidin-4-ylamino)phenyl) acrylamide], which IC50 [1] is on record?
Answer: < 10 nM

Question: What about the “BTK Inhibition Type” value [2] of the same molecule?
Answer: irreversible

Question: And the “covalent modification of BTK (mass spectrometry)” value [3]?
Answer: complete modification; also recorded: covalent modification

Question: And the “% inhibition foot pad swelling” value [4]?
Answer: 83%

Question: And the “covalent modification of JAK3 (Cys909, peptide LVMEYLPSGCLR) by mass spectrometry” value [5]?
Answer: not entirely complete; also recorded: covalent modification

Question: What about the “>50% occupancy (concentration at which >50% of BTK is occupied)” value [6] of the same molecule?
Answer: A (greater than 1 nM)

Question: What about the “>90% occupancy (concentration at which >90% of BTK is occupied)” value [6] of the same molecule?
Answer: B (greater than 10 nM)
